According to paper PMC12675537, “Molecular basis for multidrug efflux by an anaerobic-associated RND transporter” (Nature Communications, 2025):

Key:
MdtF [1] = target: T1, MdtF (Escherichia coli, UniProt P37637); assay: fluorescence polarisation; thermal stabilisation (CD, DSC, nanoDSF); assay type: binding
T1 construct: MdtF-6xHis (C-terminal His tag) in SMALP native-lipid nanodiscs; homotrimer

MdtF [2] = target: T2, MdtF (Escherichia coli, UniProt P37637, V610F); assay: fluorescence polarisation Kd; thermal stabilisation (CD, DSC, nanoDSF); assay type: binding
T2 construct: MdtF-6xHis (C-terminal His tag) in SMALP native-lipid nanodiscs; homotrimer
T2 sequence (P37637 1-1037 V610F): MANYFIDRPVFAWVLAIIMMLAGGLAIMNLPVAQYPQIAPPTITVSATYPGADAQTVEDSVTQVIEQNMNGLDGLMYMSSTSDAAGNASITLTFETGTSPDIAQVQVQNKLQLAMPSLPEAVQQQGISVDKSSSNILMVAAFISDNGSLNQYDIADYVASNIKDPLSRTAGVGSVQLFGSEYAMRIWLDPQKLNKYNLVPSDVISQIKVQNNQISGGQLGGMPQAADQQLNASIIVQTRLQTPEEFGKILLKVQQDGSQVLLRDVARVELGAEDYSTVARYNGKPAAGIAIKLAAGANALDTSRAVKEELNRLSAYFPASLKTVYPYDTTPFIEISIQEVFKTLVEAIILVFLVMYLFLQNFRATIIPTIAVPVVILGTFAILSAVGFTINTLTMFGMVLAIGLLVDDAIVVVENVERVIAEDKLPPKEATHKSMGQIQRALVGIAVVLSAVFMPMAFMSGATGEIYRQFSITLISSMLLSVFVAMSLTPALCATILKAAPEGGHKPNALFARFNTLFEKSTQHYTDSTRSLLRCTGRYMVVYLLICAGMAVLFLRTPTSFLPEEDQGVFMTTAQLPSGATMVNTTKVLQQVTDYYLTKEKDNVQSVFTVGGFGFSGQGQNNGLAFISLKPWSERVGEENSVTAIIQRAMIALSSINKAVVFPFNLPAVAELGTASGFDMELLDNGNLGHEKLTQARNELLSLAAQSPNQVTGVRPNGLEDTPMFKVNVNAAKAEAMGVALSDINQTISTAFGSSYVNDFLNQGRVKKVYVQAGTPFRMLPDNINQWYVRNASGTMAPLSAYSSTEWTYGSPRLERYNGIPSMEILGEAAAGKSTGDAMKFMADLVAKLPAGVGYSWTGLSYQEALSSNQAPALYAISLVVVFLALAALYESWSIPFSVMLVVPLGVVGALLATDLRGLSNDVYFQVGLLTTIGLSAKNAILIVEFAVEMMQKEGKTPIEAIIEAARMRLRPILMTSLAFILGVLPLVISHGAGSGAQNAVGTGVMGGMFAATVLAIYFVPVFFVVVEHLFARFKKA

cryo-EM structure = target: the molecule itself; assay: cryo-EM structure

## CC/N=c1\cc2oc3cc(NCC)c(C)cc3c(-c3ccccc3C(=O)OCC)c-2cc1C [R6G, Rhodamine 6G]
MdtF [1]
  Kd: 390 ± 90 nM
MdtF [2]
  Kd: 720 ± 90 nM

B1: Escherichia coli multidrug transporter MdtF, wild type (MdtF-6xHis) in SMA lipid particles (natural protein)
chain: MANYFIDRPVFAWVLAIIMMLAGGLAIMNLPVAQYPQIAPPTITVSATYPGADAQTVEDSVTQVIEQNMNGLDGLMYMSSTSDAAGNASITLTFETGTSPDIAQVQVQNKLQLAMPSLPEAVQQQGISVDKSSSNILMVAAFISDNGSLNQYDIADYVASNIKDPLSRTAGVGSVQLFGSEYAMRIWLDPQKLNKYNLVPSDVISQIKVQNNQISGGQLGGMPQAADQQLNASIIVQTRLQTPEEFGKILLKVQQDGSQVLLRDVARVELGAEDYSTVARYNGKPAAGIAIKLAAGANALDTSRAVKEELNRLSAYFPASLKTVYPYDTTPFIEISIQEVFKTLVEAIILVFLVMYLFLQNFRATIIPTIAVPVVILGTFAILSAVGFTINTLTMFGMVLAIGLLVDDAIVVVENVERVIAEDKLPPKEATHKSMGQIQRALVGIAVVLSAVFMPMAFMSGATGEIYRQFSITLISSMLLSVFVAMSLTPALCATILKAAPEGGHKPNALFARFNTLFEKSTQHYTDSTRSLLRCTGRYMVVYLLICAGMAVLFLRTPTSFLPEEDQGVFMTTAQLPSGATMVNTTKVLQQVTDYYLTKEKDNVQSVFTVGGFGFSGQGQNNGLAFISLKPWSERVGEENSVTAIIQRAMIALSSINKAVVFPFNLPAVAELGTASGFDMELLDNGNLGHEKLTQARNELLSLAAQSPNQVTGVRPNGLEDTPMFKVNVNAAKAEAMGVALSDINQTISTAFGSSYVNDFLNQGRVKKVYVQAGTPFRMLPDNINQWYVRNASGTMAPLSAYSSTEWTYGSPRLERYNGIPSMEILGEAAAGKSTGDAMKFMADLVAKLPAGVGYSWTGLSYQEALSSNQAPALYAISLVVVFLALAALYESWSIPFSVMLVVPLGVVGALLATDLRGLSNDVYFQVGLLTTIGLSAKNAILIVEFAVEMMQKEGKTPIEAIIEAARMRLRPILMTSLAFILGVLPLVISHGAGSGAQNAVGTGVMGGMFAATVLAIYFVPVFFVVVEHLFARFKKA
notes: also called MdtF^WT; apo-MdtF^WT; source: E. coli C43(DE3) ΔacrAB, extracted from membranes with SMA 2000 into SMALPs, purified (Ni-NTA, SEC)
cryo-EM structure
  stoichiometry N: 3

B2: Escherichia coli multidrug transporter MdtF with the single-point mutation V610F (MdtF-6xHis) in SMA lipid particles (natural protein)
chain: MANYFIDRPVFAWVLAIIMMLAGGLAIMNLPVAQYPQIAPPTITVSATYPGADAQTVEDSVTQVIEQNMNGLDGLMYMSSTSDAAGNASITLTFETGTSPDIAQVQVQNKLQLAMPSLPEAVQQQGISVDKSSSNILMVAAFISDNGSLNQYDIADYVASNIKDPLSRTAGVGSVQLFGSEYAMRIWLDPQKLNKYNLVPSDVISQIKVQNNQISGGQLGGMPQAADQQLNASIIVQTRLQTPEEFGKILLKVQQDGSQVLLRDVARVELGAEDYSTVARYNGKPAAGIAIKLAAGANALDTSRAVKEELNRLSAYFPASLKTVYPYDTTPFIEISIQEVFKTLVEAIILVFLVMYLFLQNFRATIIPTIAVPVVILGTFAILSAVGFTINTLTMFGMVLAIGLLVDDAIVVVENVERVIAEDKLPPKEATHKSMGQIQRALVGIAVVLSAVFMPMAFMSGATGEIYRQFSITLISSMLLSVFVAMSLTPALCATILKAAPEGGHKPNALFARFNTLFEKSTQHYTDSTRSLLRCTGRYMVVYLLICAGMAVLFLRTPTSFLPEEDQGVFMTTAQLPSGATMVNTTKVLQQVTDYYLTKEKDNVQSVFTFGGFGFSGQGQNNGLAFISLKPWSERVGEENSVTAIIQRAMIALSSINKAVVFPFNLPAVAELGTASGFDMELLDNGNLGHEKLTQARNELLSLAAQSPNQVTGVRPNGLEDTPMFKVNVNAAKAEAMGVALSDINQTISTAFGSSYVNDFLNQGRVKKVYVQAGTPFRMLPDNINQWYVRNASGTMAPLSAYSSTEWTYGSPRLERYNGIPSMEILGEAAAGKSTGDAMKFMADLVAKLPAGVGYSWTGLSYQEALSSNQAPALYAISLVVVFLALAALYESWSIPFSVMLVVPLGVVGALLATDLRGLSNDVYFQVGLLTTIGLSAKNAILIVEFAVEMMQKEGKTPIEAIIEAARMRLRPILMTSLAFILGVLPLVISHGAGSGAQNAVGTGVMGGMFAATVLAIYFVPVFFVVVEHLFARFKKA
notes: also called MdtF^V610F; apo-MdtF^V610F; source: E. coli C43(DE3) ΔacrAB, extracted from membranes with SMA 2000 into SMALPs, purified (Ni-NTA, SEC)
cryo-EM structure
  binding result: binds
